Columns and labels:
[1] = tested on: isolated rabbit corpus cavernosum; assay: Isolated rabbit corpus cavernosum in organ chambers, sex not specified or both sexes; conditions: for potentiation of the relaxant effect of purine by the NSAID: NSAID in place of aspirin, combined with purine
Source text: The in vitro model we used was that of the isolated rabbit corpus cavernosum in organ chambers. […] In fact, the best correlations with the results found in humans have been found in the rabbit; see, e.g., Bush P. A., Aronson W. J., Buga G. M., Rajfer J., Ignarro L. J., J. Urol. 147(6); 1650-1655 (1992); Knispel H. H., Goessel C., Bechman R., Urol. Res. 20(4); 253-257 (1992); Holmquist F., Hedlund H., Andersson K. E., J. Physiol. (London) 449; 295-311 (1992); and Cellek S., Moncada S., Proc. Natl. Acad. Sci. USA 94(15); 8226-8231 (1997).
The relaxant action of purines was studied in this model either with purines alone or with an inhibitor of NO synthesis (N-omega-nitro-L-arginine, or L-NNA) so as to investigate whether the regulation by purines of the production of NO is a component of the relaxant effect of purines.
In a similar manner, we investigated whether the presence of an inhibitor of the synthesis of prostaglandins (cyclooxygenase inhibitor) modified the effects of purine. If the action of purine could be explained in part by an indirect effect via prostaglandins, we would expect to see a decrease in the effect of purine in the presence of the cyclooxygenase inhibitor.
This study was performed in vitro on corpus cavernosum smooth muscles from male and female rabbits. The technique is that of organ chambers.
The study was performed on male and female rabbits.

[2] = tested on: corpus cavernosum smooth muscle from male rabbits; assay: Relaxation of phenylephrine-precontracted corpus cavernosum smooth muscle in organ chambers, male rabbits; set-up: species or system rabbit; conditions: for relaxation of the corpus cavernosum smooth muscle in the presence of aspirin / relaxation of the corpus cavernosum smooth muscle: male rabbits, after phenylephrine precontraction; for relaxation of the corpus cavernosum smooth muscle in the presence of aspirin: purine 10^-3M combined with aspirin 10^-3M; for relaxation of the corpus cavernosum smooth muscle: purine alone at 10^-3M
[3] = tested on: corpus cavernosum smooth muscle from female rabbits; assay: Relaxation of phenylephrine-precontracted corpus cavernosum smooth muscle in organ chambers, female rabbits; set-up: species or system rabbit; conditions: after phenylephrine precontraction; for relaxation of the corpus cavernosum in the presence of aspirin: purine 10^-3M in the presence of aspirin; for relaxation of the corpus cavernosum: purine alone at 10^-3M

SMILES: Cc1cccc(Nc2ccccc2C(=O)O)c1C [mefenamic acid]
- potentiation of the relaxant effect of purine by the NSAID [1]: confirmed

SMILES: COc1ccc2c(c1)c(CC(=O)O)c(C)n2C(=O)c1ccc(Cl)cc1 [indomethacin]
- potentiation of the relaxant effect of purine by the NSAID [1]: confirmed

SMILES: Nc1ncnc2c1ncn2[C@@H]1O[C@H](COP(=O)(O)OP(=O)(O)OP(=O)(O)O)[C@@H](O)[C@H]1O [ATP, adenosine triphosphate]
- relaxation of the corpus cavernosum smooth muscle in the presence of aspirin [2]: 57%
- relaxation of the corpus cavernosum smooth muscle [2]: 35%
- relaxation of the corpus cavernosum in the presence of aspirin [3]: 50%
- relaxation of the corpus cavernosum [3]: 31%

SMILES: NC(=NCCC[C@H](N)C(=O)O)N[N+](=O)[O-] [L-NNA, N-omega-nitro-L-arginine]
- decrease of the relaxant effect of purine in the presence of an inhibitor of NO synthesis ([1]; compared with purine alone): about 15%

SMILES: CC(=O)Oc1ccccc1C(=O)O [aspirin, acetylsalicylic acid, reference compound]
- vasoactivity of the NSAID by itself on this model ([2]; aspirin alone): not vasoactive

SMILES: Nc1ncnc2c1ncn2[C@@H]1O[C@H](COP(=O)(O)O)[C@@H](O)[C@H]1O [AMP]
- relaxation of the corpus cavernosum smooth muscle in the presence of aspirin [2]: 92%
- relaxation of the corpus cavernosum smooth muscle [2]: 70%
- relaxation of the corpus cavernosum in the presence of aspirin [3]: 36%
- relaxation of the corpus cavernosum [3]: 20%

SMILES: O=C(O)c1ccccc1O [salicylic acid]
- potentiation of the relaxant effect of purine by the NSAID [1]: confirmed

From patent publication US20030139371A1, “Drug for combating sexual dysfunctions” (priority 2000, published 2003)
